From patent US20090170902A1, “COMPOUNDS WHICH POTENTIATE GLUTAMATE RECEPTOR AND USES THEREOF IN MEDICINE” (priority 2006, published 2009)

These compounds were tested against T1, human GluR2 flip (unedited) AMPA receptor subunit (Homo sapiens, UniProt P42262) (assay: Calcium influx fluorescence assay (FLUO4, FLIPR)). Conditions: HEK293; HEK 293 cells expressing human GluR2 flip (unedited); relative to fluorescence increase induced by cyclothiazide at maximum response; read-out: activity relative to cyclothiazide (at its maximal response).
T1 construct: expressed in transfected cells
T1 sequence (P42262 25-883 isoform P42262-2 limits assumed): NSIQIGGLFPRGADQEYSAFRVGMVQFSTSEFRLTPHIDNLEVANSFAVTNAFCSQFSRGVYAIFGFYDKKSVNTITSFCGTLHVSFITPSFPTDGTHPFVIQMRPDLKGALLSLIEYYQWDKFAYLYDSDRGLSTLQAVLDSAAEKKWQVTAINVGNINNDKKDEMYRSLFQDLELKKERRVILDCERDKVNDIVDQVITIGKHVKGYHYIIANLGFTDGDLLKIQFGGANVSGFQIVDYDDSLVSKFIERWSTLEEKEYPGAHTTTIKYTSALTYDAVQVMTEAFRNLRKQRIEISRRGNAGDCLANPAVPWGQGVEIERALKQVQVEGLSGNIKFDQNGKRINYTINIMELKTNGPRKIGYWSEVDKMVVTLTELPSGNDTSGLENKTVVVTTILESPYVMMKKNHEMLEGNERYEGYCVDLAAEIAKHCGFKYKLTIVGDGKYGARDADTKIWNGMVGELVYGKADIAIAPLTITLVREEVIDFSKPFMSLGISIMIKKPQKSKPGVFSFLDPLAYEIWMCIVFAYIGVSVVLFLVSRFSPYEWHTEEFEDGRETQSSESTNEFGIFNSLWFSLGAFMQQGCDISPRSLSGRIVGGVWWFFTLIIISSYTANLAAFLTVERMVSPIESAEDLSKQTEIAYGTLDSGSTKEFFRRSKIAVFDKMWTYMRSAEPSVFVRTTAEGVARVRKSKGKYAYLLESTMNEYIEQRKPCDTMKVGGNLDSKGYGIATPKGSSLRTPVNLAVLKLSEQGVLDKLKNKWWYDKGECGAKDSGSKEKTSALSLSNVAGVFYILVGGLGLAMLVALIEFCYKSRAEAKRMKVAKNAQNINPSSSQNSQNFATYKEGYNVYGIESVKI
Assay type: cell-based
Procedure: 384 well plates are prepared containing confluent monolayer of HEK 293 cells either stably expressing or transiently transfected with human GluR2 flip (unedited) AMPA receptor subunit. These cells form functional homotetrameric AMPA receptors. The tissue culture medium in the wells are discarded and the wells are each washed three times with standard buffer (80 μL) for the stable cell line (145 mM NaCl, 5 mM KCl, 1 mM MgCl2, 2 mM CaCl2, 20 mM N-[2-hydroxyethyl]-piperazine-N-[2-ethanesulfonic acid (HEPES), 5.5 mM glucose, pH 7.3) or with a Na-free buffer for the transient transfected cells (145 mM N-methyl-glucamine instead of NaCl). The plates are then incubated for 60 minutes in the dark with 2 μM FLUO4-AM dye (20 μL) (Molecular Probes, Netherlands) at room temperature to allow cell uptake of the FLUO-4AM, which is then converted to FLUO-4 by intracellular esterases which is unable to leave the cell. After incubation each well is washed three times with buffer (80 μL) (30 μL of buffer remained in each well after washing).
Compounds of the invention (or reference compounds such as cyclothiazide) are dissolved in dimethylsulfoxide (DMSO) at a stock concentration of 10 mM. These solutions are further diluted with DMSO using a Biomek FX (Beckman Coulter) in a 384 compound plate. Each dilution (1 μL) is transferred to another compound plate and buffer (50 μL) is added. An agonist stimulus (glutamate) plate is prepared by dissolving sodium glutamate in water to give a concentration of 100 mM. This solution is diluted with buffer to give a final concentration of 500 μM and dispensed into another 384-well plate (50 μL/well) using a Multidrop (Thermolabsystems).
The cell plate is then transferred into a fluorescence imaging plate based reader [such as the FLIPR384 (Molecular Devices)]. A baseline fluorescence reading is taken over a 10 to 240 second period, and then 10 μL from each plate containing a compound of the invention made up in standard buffer solution (in a concentration range from […]) is added (to give a final concentration in the range 30 μM to 3 pM). The fluorescence is read over 5 minute period. 500 μM glutamate solution (10 μL) is added (to give a final concentration of 100 μM). The fluorescence is then read over a 4 minute period. The activities of the compounds of the invention and reference compounds are determined by measuring peak fluorescence after the last addition. The activity is also expressed relative to the fluorescence increase induced by cyclothiazide at their maximum response (i.e. greater than 30 μM).
The assay described above is believed to have an effective limit of detection of a pEC50 in the region of 3.5-4.0 due to the limitations of compound solubility. The pEC50 result is generally considered to be accurate +/−0.3.

Row | Structure (SMILES) | Emax [%]
1 | CC(C)S(=O)(=O)N[C@@H]1CCO[C@@H]1c1ccc(-c2cccs2)cc1 (relative stereo) [Example 9, N-{cis-2-[4-(2-thienyl)phenyl]tetrahydro-3-furanyl}-2-propanesulfonamide] | ≥ 50
2 | Cc1cncc(-c2ccc([C@H]3OCC[C@H]3NS(=O)(=O)C(C)C)cc2)c1 (relative stereo) [Example 5, N-{cis-2-[4-(5-methyl-3-pyridinyl)phenyl]tetrahydro-3-furanyl}-2-propanesulfonamide] | ≥ 50
3 | CC(C)S(=O)(=O)N[C@@H]1CCO[C@@H]1c1ccc(-c2ccc(F)cn2)cc1 (relative stereo) [Example 3, N-{cis-2-[4-(5-fluoro-2-pyridinyl)phenyl]tetrahydro-3-furanyl}-2-propanesulfonamide] | ≥ 50
4 | CC(C)S(=O)(=O)N[C@@H]1CCO[C@@H]1c1ccc(-c2cncc(F)c2)cc1 (relative stereo) [Example 4, N-{cis-2-[4-(5-fluoro-3-pyridinyl)phenyl]tetrahydro-3-furanyl}-2-propanesulfonamide] | ≥ 50

Next, values leading:

Row | Emax [%] | Structure (SMILES)
5 | ≥ 50 | CC(=O)c1cccc(-c2ccc([C@H]3OCC[C@H]3NS(=O)(=O)C(C)C)cc2)c1 (relative stereo) [Example 8, N-[cis-2-(3′-acetyl-4-biphenylyl)tetrahydro-3-furanyl]-2-propanesulfonamide]
6 | ≥ 50 | CC(C)S(=O)(=O)N[C@@H]1CCO[C@@H]1c1ccc(-c2ccc(F)nc2)cc1 (relative stereo) [Example 1, N-{cis-2-[4-(6-fluoro-3-pyridinyl)phenyl]tetrahydro-3-furanyl}-2-propanesulfonamide]
7 | ≥ 50 | Cc1ccc(-c2ccc([C@H]3OCC[C@H]3NS(=O)(=O)C(C)C)cc2)cn1 (relative stereo) [Example 2, N-{cis-2-[4-(6-methyl-3-pyridinyl)phenyl]tetrahydro-3-furanyl}-2-propanesulfonamide]
8 | ≥ 50 | CC(C)S(=O)(=O)N[C@@H]1CCO[C@@H]1c1ccc(-c2ccc(F)cc2)cc1 (relative stereo) [Example 6, N-[cis-2-(4′-fluoro-4-biphenylyl)tetrahydro-3-furanyl]-2-propanesulfonamide]
9 | ≥ 50 | CC(C)S(=O)(=O)N[C@@H]1CCO[C@@H]1c1ccc(-c2ccc(C#N)cc2)cc1 (relative stereo) [Example 7, N-[cis-2-(4′-cyano-4-biphenylyl)tetrahydro-3-furanyl]-2-propanesulfonamide]
